Each block holds one compound with its values, some of them ahead of it.
What was measured:
[1] = Andersen Cascade Impactor (ACI) evaluation of pMDI spray drug delivery characteristics; assay type: physicochemical
Experimental: Spray characteristics of the system were evaluated by an Andersen cascade impactor fitted with a USP throat (App. 1, USP 33). […] This was repeated twice. Pre- and post-shot weights were recorded. […] The solutions were analysed by using a UPLC/MS (Ultra Performance Liquid Chromatography/Mass Spectrometry) system for the determination of the drug deposition.

[2] = Plume duration measured with in-line PC microphone, dual orifice actuator; assay type: physicochemical; details: Ex 8, individual can
Experimental: For Example 8, plume duration was measured using an in-line PC microphone in conjunction with Audacity 1.2.6 software.
Formulation combinations 17a-18a and 17b-18b are fired through the dual orifice actuator, as shown at 121 in FIG. 17B. Plume duration was measured for the simultaneous actuation of two 25 μL valves and two 63 μL valves and compared with plume duration for the individual cans. […] The two formulation combinations were: […]

[3] = Ex 1, Dual MDI, Formulations 1+2, single 0.22 mm actuator orifice, mean, n=3
[4] = Ex 1, Dual MDI, Formulations 1+2, single 0.30 mm actuator orifice, mean, n=3
[5] = Ex 1, Standard MDI, single can, 0.22 mm actuator orifice, mean, n=3
[6] = Ex 1, Standard MDI, single can, 0.30 mm actuator orifice, mean, n=3
[7] = Ex 2/3, Standard MDI, single can (BDP 100 μg/50 μl or formoterol fumarate 6 μg/50 μl), 0.22 mm orifice, mean, n=3
[8] = Ex 2/3, Standard MDI, single can, 0.22 mm orifice, mean, n=3
[9] = Ex 2, Dual MDI, Formulation 3 (formoterol fumarate 6 μg/25 μl) + Formulation 4 (BDP 100 μg/25 μl, glycerol) mixed, single 0.22 mm orifice, mean, n=2
[10] = Ex 2, Dual MDI, Formulations 3+4, single 0.22 mm orifice, mean, n=2
[11] = Ex 4, Dual-MDI, Formulation 6 + Formulation 7 (HFA 134a), single 0.22 mm orifice, mean, n=2
[12] = Ex 4, Standard MDI, high ethanol (26% w/w) BDP 100 μg, 0.22 mm orifice, mean, n=2
[13] = Ex 6, dual can, BDP 25 μL + BUD 100 μL, single 0.22 mm orifice, mean, n=2
[14] = Ex 6, dual can, BDP 50 μL + BUD 50 μL, single 0.22 mm orifice, mean, n=2
[15] = Ex 6, dual can, BDP 100 μL + BUD 25 μL, single 0.22 mm orifice, mean, n=2
[16] = Ex 6, single can, 50 μg dose, metered volume 25 μL, 0.22 mm actuator, mean, n=2
[17] = Ex 6, single can, 50 μg dose, metered volume 50 μL, 0.22 mm actuator, mean, n=2
[18] = Ex 6, single can, 50 μg dose, metered volume 100 μL, 0.22 mm actuator, mean, n=2
[19] = Ex 7, Dual can, Formulations 15+16 simultaneously, dual orifice actuator, mean, n=2
[20] = Ex 7, Single can through dual orifice actuator, mean, n=2
[21] = Ex 9, Dual can, Formulations 17a+18a simultaneously, dual orifice actuator, mean, n=2
[22] = Ex 9, Single can through dual orifice actuator, mean, n=2
[23] = Ex 11, Dual can single orifice, Formulations 9+12, 0.30 mm orifice, mean, n=2
[24] = Ex 11, Single reservoir conventional MDI, 50/50, 0.30 mm orifice, mean, n=2
[25] = Ex 19, dual reservoir-single orifice prototype (FIG. 14B)
[26] = Ex 19, dual reservoir-single orifice prototype (FIG. 14B), BDP/Formoterol 100/6 μg/25 μl + glycopyrronium bromide 12.5 μg/25 μl
[27] = Ex 20, triple reservoir-single orifice prototype (FIG. 16B)
[28] = Ex 20, triple reservoir-single orifice prototype (FIG. 16B), BDP/Formoterol + glycopyrronium bromide + budesonide 50 μg/25 μl
[29] = Ex 3, Dual MDI, Formulation 3 + placebo Formulation 5, single 0.22 mm orifice, mean, n=3
[30] = Ex 5, Dual-MDI, Formulations 8+3, single 0.22 mm orifice, mean, n=3

Delivered Dose ([1]; Ex 1, Dual MDI, Formulations 1+2 (each BDP 50 μg/25 μl, 13% ethanol, 1.3% glycerol) mixed, single 0.22 mm actuator orifice, mean, n=3): 99.3 µg
FPD ≦ 5 μm [1, 3]: 44.6 µg
FPF [1, 3]: 45.0%
MMAD [1, 3]: 2.9 μm
Delivered Dose [1, 4]: 95.6 µg
FPD ≦ 5 μm [1, 4]: 27.1 µg
FPF [1, 4]: 28.3%
MMAD [1, 4]: 3.0 μm
Delivered Dose ([1]; Ex 1, Standard MDI, single can BDP 100 μg/50 ul, 13% ethanol, 1.3% glycerol, 0.22 mm actuator orifice, mean, n=3): 89.8 µg
FPD ≦ 5 μm [1, 5]: 41.9 µg
FPF [1, 5]: 46.6%
MMAD [1, 5]: 3.0 μm
Delivered Dose [1, 6]: 89.1 µg
FPD ≦ 5 μm [1, 6]: 26.2 µg
FPF [1, 6]: 29.4%
MMAD [1, 6]: 3.3 μm
Delivered Dose [1, 7]: 99.3 µg
FPD ≦ 5 μm [1, 8]: 44.6 µg
FPF [1, 8]: 45.0%
MMAD [1, 8]: 2.9 μm
Delivered Dose [1, 9]: 97.9 µg
FPD ≦ 5 μm [1, 10]: 52.5 µg
FPF [1, 10]: 53.6%
MMAD [1, 10]: 2.5 μm
Delivered Dose ([1]; Ex 4, Dual-MDI, Formulation 6 (BDP 100 μg/25 μl, 26% ethanol) + Formulation 7 (100% HFA 134a, 25 μl), single 0.22 mm orifice, mean, n=2): 86.4 µg
FPD ≦ 5 μm [1, 11]: 41.1 µg
FPF [1, 11]: 47.5%
MMAD [1, 11]: 2.7 μm
FPD ≦ 5 μm [1, 12]: 26.7 µg
FPF [1, 12]: 26.5%
MMAD [1, 12]: 3.5 μm
Delivered Dose ([1]; Ex 4, Standard MDI, single can BDP 100 μg/25 μl, 26% w/w ethanol, 1.3% glycerol, 0.22 mm orifice, mean, n=2): 100.6 µg
Delivered Dose [1, 13]: 49.4 µg
FPD ≦ 5 μm [1, 13]: 18.5 µg
FPF [1, 13]: 37.3%
MMAD [1, 13]: 2.6 μm
Delivered Dose [1, 14]: 38.2 µg
FPD ≦ 5 μm [1, 14]: 16.8 µg
FPF [1, 14]: 44.1%
MMAD [1, 14]: 1.9 μm
Delivered Dose [1, 15]: 45.5 µg
FPD ≦ 5 μm [1, 15]: 18.6 µg
FPF [1, 15]: 40.8%
MMAD [1, 15]: 1.8 μm
MMAD ([1]; Ex 6, single can configuration, 0.22 mm actuator, across metered volumes 25-100 μL): 1.1-1.2 μm
Delivered Dose ([1]; Ex 6, single can, 50 μg dose, metered volume 25 μL (Formulation 9 / 12), 0.22 mm actuator, mean, n=2): 52.0 µg
FPD ≦ 5 μm [1, 16]: 31.1 µg
FPF [1, 16]: 59.8%
MMAD [1, 16]: 1.2 μm
Delivered Dose ([1]; Ex 6, single can, 50 μg dose, metered volume 50 μL (Formulation 10 / 13), 0.22 mm actuator, mean, n=2): 45.6 µg
FPD ≦ 5 μm [1, 17]: 24.7 µg
FPF [1, 17]: 54.0%
MMAD [1, 17]: 1.2 μm
Delivered Dose ([1]; Ex 6, single can, 50 μg dose, metered volume 100 μL (Formulation 11 / 14), 0.22 mm actuator, mean, n=2): 48.8 µg
FPD ≦ 5 μm [1, 18]: 19.2 µg
FPF [1, 18]: 39.4%
MMAD [1, 18]: 1.1 μm
Delivered Dose ([1]; Ex 7, Dual can, Formulations 15+16 (both with glycerol, 50 μg/25 μl) fired simultaneously through dual orifice actuator (0.22 mm), mean, n=2): 41.5 µg
FPD ≦ 5 μm [1, 19]: 12.7 µg
FPF [1, 19]: 30.6%
MMAD [1, 19]: 2.5 μm
FPD ≦ 5 μm [1, 20]: 17.0 µg
FPF [1, 20]: 47.2%
MMAD [1, 20]: 2.3 μm
Delivered Dose ([1]; Ex 7, Single can, fired individually through dual orifice actuator (0.22 mm), Formulation 15 inverted, Formulation 16 upright, mean, n=2): 36.0 µg
Delivered Dose ([1]; Ex 9, Dual can, Formulation 17a (budesonide, glycerol) + 18a (BDP, no glycerol) simultaneously through dual orifice actuator, mean, n=2): 40.8 µg
FPD ≦ 5 μm [1, 21]: 12.7 µg
FPF [1, 21]: 31.1%
MMAD [1, 21]: 1.5 μm
FPD ≦ 5 μm [1, 22]: 16.2 µg
FPF [1, 22]: 55.8%
MMAD [1, 22]: 0.9 μm
Delivered Dose ([1]; Ex 9, Single can, fired individually through dual orifice actuator, Formulation 17a inverted, 18a upright (50 μg/25 μL), mean, n=2): 29.1 µg
Metered Dose ([1]; Ex 11, Dual can single orifice, Formulation 9 (BDP 50/25) + Formulation 12 (budesonide 50/25, glycerol), 0.30 mm orifice, mean, n=2): 59.5 µg
Delivered Dose [1, 23]: 55.2 µg
FPD [1, 23]: 16.3 µg
FPF [1, 23]: 29.5%
MMAD [1, 23]: 2.8 μm
Metered Dose ([1]; Ex 11, Single reservoir conventional MDI, 50 μg/50 μl (Formulation 10 / 13), 0.30 mm orifice, mean, n=2): 52.7 µg
Delivered Dose [1, 24]: 47.1 µg
FPD [1, 24]: 16.6 µg
FPF [1, 24]: 35.2%
MMAD [1, 24]: 1.3 μm
MMAD ([1]; Ex 13, BDP formulation 25 μl delivered simultaneously with 100 μl budesonide formulation (glycerol), single 0.30 mm orifice): 3.1 μm
MMAD ([1]; Ex 13, conventional single reservoir MDI, 0.30 mm orifice): 1.2 μm
MMAD ([1]; Ex 14a/15, comparative, conventional single reservoir MDI, 0.22 mm orifice, 50 μl valves): 1.3 μm
MMAD ([1]; Ex 14a/15, dual reservoir-dual orifice, impingement angle 60°, orifice diameter 0.25 mm, separation distance 6.0 mm): 2.3 μm
actuator deposition ([1]; Ex 14a, 15° impingement, 6.0 mm separation, stated comparable to the standard actuator): 6.1 µg
MMAD ([1]; Ex 14a, dual reservoir-dual orifice, Formulations 9+12, impingement angle 60°, orifice diameter 0.25 mm, separation distance 17.5 mm): 2.0 μm
MMAD ([1]; Ex 14a, dual reservoir-dual orifice, impingement angle 15°, orifice diameter 0.25 mm, separation distance 6.0 mm): 1.8 μm
MMAD ([1]; Ex 14a, dual reservoir-dual orifice, impingement angle 60°, orifice diameter 0.25 mm, separation distance 9.0 mm): 2.1 μm
MMAD ([1]; Ex 14a, dual reservoir-dual orifice, impingement angle 60°, orifice diameter 0.30 mm, separation distance 2.0 mm): 1.9 μm
MMAD ([1]; Ex 15, dual reservoir, Formulations 9+12 through a single 0.30 mm diameter orifice): 2.8 μm
Delivered Dose [1, 25]: 67.6 µg
FPD [1, 25]: 30.2 µg
FPF [1, 25]: 44.7%
MMAD [1, 25]: 1.3 μm
Metered Dose [1, 26]: 92.8 µg
Delivered Dose [1, 27]: 60.8 µg
FPD [1, 27]: 21.2 µg
FPF [1, 27]: 34.9%
MMAD [1, 27]: 1.4 μm
Metered Dose [1, 28]: 85.9 µg
Plume duration ([2]; valve size 25 μL (Formulation 18a BDP upright, 17a budesonide inverted)): 0.317 s
Plume duration ([2]; valve size 63 μL (Formulation 18b BDP upright, 17b budesonide inverted)): 0.545 s
SMILES: CCC(=O)OCC(=O)[C@@]1(OC(=O)CC)[C@@H](C)C[C@H]2[C@@H]3CCC4=CC(=O)C=C[C@]4(C)[C@@]3(Cl)[C@@H](O)C[C@@]21C [BDP, Beclometasone dipropionate]

Delivered Dose [1, 25]: 7.9 µg
FPD [1, 25]: 3.5 µg
FPF [1, 25]: 44.1%
MMAD [1, 25]: 1.3 μm
Metered Dose [1, 26]: 11.3 µg
Delivered Dose [1, 27]: 6.9 µg
FPD [1, 27]: 2.2 µg
FPF [1, 27]: 32.4%
MMAD [1, 27]: 1.4 μm
Metered Dose [1, 28]: 10.8 µg
SMILES: C[N+]1(C)CCC(OC(=O)C(O)(c2ccccc2)C2CCCC2)C1 (stereo not drawn) [Glycopyrronium bromide]

SMILES: COc1ccc(C[C@@H](C)NC[C@H](O)c2ccc(O)c(NC=O)c2)cc1.COc1ccc(C[C@@H](C)NC[C@H](O)c2ccc(O)c(NC=O)c2)cc1.O=C(O)/C=C/C(=O)O [Formoterol, Formoterol fumarate]
Delivered Dose [1, 7]: 4.1 µg
FPD ≦ 5 μm [1, 8]: 2.1 µg
FPF [1, 8]: 51.9%
MMAD [1, 8]: 0.9 μm
Delivered Dose [1, 9]: 3.2 µg
FPD ≦ 5 μm [1, 10]: 1.9 µg
FPF [1, 10]: 61.1%
MMAD [1, 10]: 2.1 μm
Delivered Dose ([1]; Ex 3, Dual MDI, Formulation 3 (formoterol 6 μg/25 μl) + placebo Formulation 5 (glycerol), single 0.22 mm orifice, mean, n=3): 4.2 µg
FPD ≦ 5 μm [1, 29]: 2.7 µg
FPF [1, 29]: 64.0%
MMAD [1, 29]: 1.5 μm
Delivered Dose ([1]; Ex 5, Dual-MDI, Formulation 8 (budesonide 400 μg/63 μl) + Formulation 3 (formoterol 6 μg/25 μl), single 0.22 mm orifice, mean, n=3): 3.5 ± 0.7 µg
FPD ≦ 5 μm [1, 30]: 1.9 ± 0.2 µg
FPF [1, 30]: 53.6 ± 6.6%
MMAD [1, 30]: 1.7 ± 0.1 μm
Delivered Dose [1, 25]: 3.6 µg
FPD [1, 25]: 1.6 µg
FPF [1, 25]: 44.3%
MMAD [1, 25]: 1.3 μm
Metered Dose [1, 26]: 5.7 µg
Delivered Dose [1, 27]: 3.3 µg
FPD [1, 27]: 1.1 µg
FPF [1, 27]: 33.9%
MMAD [1, 27]: 1.5 μm
Metered Dose [1, 28]: 5.2 µg
